What is called Kd is the free concentration of one partner at which half of the binding sites on the other are occupied at equilibrium, for simple one-to-one binding. A higher Kd goes with a looser complex.

In experiment [1] the target is T1, LysU (heat-inducible Escherichia coli lysyl-tRNA synthetase) (Escherichia coli, UniProt P0A8N5).
T1 sequence (P0A8N5 2-505): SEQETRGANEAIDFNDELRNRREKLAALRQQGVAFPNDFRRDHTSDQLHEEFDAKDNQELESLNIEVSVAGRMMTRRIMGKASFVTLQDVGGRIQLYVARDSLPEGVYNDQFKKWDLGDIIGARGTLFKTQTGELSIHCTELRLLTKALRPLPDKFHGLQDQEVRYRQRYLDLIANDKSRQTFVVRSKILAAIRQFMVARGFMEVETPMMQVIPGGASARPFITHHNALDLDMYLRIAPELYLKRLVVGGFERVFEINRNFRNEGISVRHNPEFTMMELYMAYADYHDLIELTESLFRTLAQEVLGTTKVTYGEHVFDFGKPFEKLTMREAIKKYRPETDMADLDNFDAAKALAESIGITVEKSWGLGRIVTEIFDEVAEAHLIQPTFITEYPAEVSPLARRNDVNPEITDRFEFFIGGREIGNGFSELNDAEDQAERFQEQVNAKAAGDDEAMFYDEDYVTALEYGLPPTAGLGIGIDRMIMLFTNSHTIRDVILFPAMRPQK
Nature of the experiment: isothermal titration calorimetry. The class given is binding. For orientation: In ITC the heat of successive injections is recorded.

For experiment [2], the target named is T1, LysU (heat-inducible Escherichia coli lysyl-tRNA synthetase). Nature of the experiment: biochemical.

In the case of `Nc1ncnc2c1ncn2[C@@H]1O[C@H](COP(=O)(O)OP(=O)(O)CP(=O)(O)O)[C@@H](O)[C@H]1O` [AMPPCP, β,γ-methyleneadenosine 5'-triphosphate], in experiment [1], the Kd came to 1.22 ± 0.15 µM.

The compound `NCCCC[C@H](N)C(=O)O` [lysine] returned a dissociation constant (Kd) in experiment [2] of 7.96 ± 1.4 µM.

Source of the values: paper PMC165585 (BMC Structural Biology, 2003).
